Here are results for one compound from patent US12453725B2, “Treatment of inflammatory disease” (Celleron Therapeutics Limited, priority 2019, dated 2025).

One data set concerns MC38 tumours. The data set is described as follows: Syngeneic MC38 tumour model. On the set-up: species or system C57BL/6 mice. The following applies: mouse, in vivo. The source says: (§1) Syngeneic colorectal tumour xenograft Colon 26 model was induced in female BALB/c mice and MC38 model in C57BL/6 mice by subcutaneous injection of cell suspension into the flank following the anaesthetization by inhalation of isoflurane. Upon solid tumour formation Colon 26 animals were divided into six experimental groups treated respectively with: vehicle control (control), CXD101, anti-PD-1 mAb (BioXCell, USA), anti-CTLA4 mAb (BioXCell, USA), combination of CXD101 with anti-PD-1 antibody and combination of CXD101 with anti-CTLA4 antibody. MC38 animals were divided into four groups, without CTLA-4-based treatment. During the course of experiment animals were monitored twice daily and weighed three times a week. Mice in bad overall condition and/or tumour volume exceeding 1000 mm3 were euthanized. Tumour volume was calculated by two-dimensional measurement according to the formula: Tumour volume=(a×b^2)×0.5 in which a—represents the largest and, b—the perpendicular tumour diameter. The study was terminated on 36th day (Colon 26) or 48th day (MC38). All Colon 26 animal handling has been executed by Charles River Laboratories (Germany) personnel with compliance to all local and international laws and regulations. Experiments involving MC38 tumour model have been executed by Crown Bioscience San Diego (USA). CXD101 Clinical Trial in Combination with Nivolumab (CTL-101-023)

For data set [1], the system named is SW620 human colon adenocarcinoma cells. In words: MTT assay, SW620 cells. The format is cell-based. Here is the method: (§2) Three human colorectal adenocarcinoma cell lines: SW620 (ATCC® CCL-227™), HCT-15 (ATCC® CCL-225™), LoVo (ATCC® CCL-229™), and one mouse colon carcinoma cell line: CT26 (ATCC® CRL-2638™) were obtained from ATCC. Human cell lines were cultured in DMEM (Lonza Group, Switzerland), while CT26 in RPMI (Biowest, France). The media were supplemented with 10% FBS and 1% penicillin-streptomycin (Lonza Group, Switzerland). Cells were cultured under standard conditions.
(§3) In order to assess the cytotoxicity of CXD101, cells were seeded onto 96-well plates overnight and the next day were dosed with CXD101 and incubated for 72 h or 120 h. Next, 100 μl of Thiazolyl Blue Tetrazolium Bromide (MTT, Sigma-Aldrich, USA) was added into a well (final concentration […]) and incubated for 2 h at 37° C. After that medium was discarded and formazan crystals were dissolved in 100 μl DMSO (VWR International, USA) by shaking for 15 minutes. Absorbance was read by Omega FLUOstar plate reader (BMG Labtech Ltd, Germany) at the 584 nm wavelength. Data were analysed and IC50 doses calculated in GraphPad Prism (GraphPad Software, USA).

Another data set relates to SW620 cells. The data set is described as follows: RNA-seq, SW620 cells. In kind it is cell-based, human. The protocol: SW620 cells were seeded into 6-well plates and left to adhere overnight. Cells were treated with 1 μM, 10 μM of CXD101 for 48 h. CT26 cells were seeded onto 100 mm plates and treated with 2.7 μM and 10 μM CXD101 for 72 h. After treatment cells were harvested and total RNA extracted by means of Promega ReliaPrep™ RNA Cell Miniprep System (Promega, USA). RNA was dissolved in RNAse free water and stored in −80° C. for future analysis. RNA concentration was measured by NanoDrop 2000 (Thermo Fisher Scientific, USA). Samples were qualified for library preparation if […]. Library preparation with poly (A) enrichment was performed by BGI.
FASTQ files for CXD101 and DMSO treated samples in three biological replicates were trimmed to remove adapters and low-quality bases with TrimGalore v.0.4.3 (http://www.bioinformatics.babraham.ac.uk/projects/trim_galore/). The trimmed reads were aligned to the human reference genome (build hg19) with STAR aligner v.2.7 with two mismatches allowed. Differential gene expression analysis was done with the Bioconductor framework (v.3.8) and DESeq2 R package v.1.22, using read count data provided by the aligner. Genes were considered differentially expressed if the adjusted P, calculated using the Benjamini-Hochberg method in order to minimise the false discovery rate, was less than 0.01 (1%) and the change in expression level was greater than ˜2-fold as compared to DMSO control (e.g. |log_2(expression fold change)|>1).

Data set [2] deals with colon26 tumours. In words: Syngeneic colon26 colon carcinoma model. The format is in vivo. The protocol: (§4) To assess gene expression in tumours that were growing in vivo, we evaluated the effect of CXD101 in the syngeneic colon26 colon carcinoma model in tumours grown subcutaneously in Balb/c mice, with CXD101 given orally for two 5-day consecutive periods and performed RNAseq on RNA purified from the tumours. Formalin-fixed paraffin-embedded samples were also prepared to assess by immunohistochemistry (IHC) the tumour micro-environment.
as §1

In a further data set the test system is H3 acetylation. In words: H3 acetylation, colon26 cells. In kind it is cell-based, mouse. The following applies: colon26, dose-dependent. Here is the method:
Cell pellets were lysed in TNN buffer, for 30 minutes on ice and centrifuged for another 30 minutes at maximum speed at 4° C. Protein concentration was assessed by Bradford assay (Quick Start™ Bradford 1× Dye Reagent, Bio-Rad Laboratories, USA). After gel electrophoresis, proteins were transferred onto the PVDF membrane by means of Trans-Blot® Turbo™ Transfer System (Bio-Rad Laboratories, USA) and blocked by 1 h incubation in 5% skim milk (Merck Group, Germany) in PBST at RT. To confirm acetylation induced by CXD101, membranes were incubated with anti-H3 (ab1791, abcam) antibody, anti-H3Ack9 (ab10812, abcam) in case of CT26 cells, and for SW620 with H3Ack14 antibody (#7627, Cell Signaling) overnight, at 4° C. Next, membranes were washed and treated with secondary antibody for 1 h at RT. Chemiluminescent signals were detected by LICOR C-Digit (LI-COR Biosciences, USA), and the data quantified using ImageJ software (National Institutes of Health, USA).

Data set [3] relates to mouse colorectal colon26 cells. In words: Proliferation of colon26 cells. In kind it is cell-based. The following applies: dose- and time-dependent. Here is the method: as §2, §3
A further data set is described as follows: physchem. The following applies: 25 °C, aqueous buffer.
Data set [4] deals with colon26 tumours. The data set is described as follows: RNAseq and qPCR of colon26 tumours. The format is in vivo, Balb/c mice. Here is the method: as §4
The effect was dose-dependent, as more tumour-inhibition occurred with a higher dose of CXD101 (50 mg/kg compared to 15 mg/kg). […] We performed RNA seq on polyA-enriched RNA prepared from the tumours. In a similar way to the analysis of colon26 in vitro, the RNAseq data was aligned to the reference M. musculus genome (mm10) with STAR aligner and analysed for differential expression. […] We then assessed whether the same genes identified in the in vitro treated colon26 cells were similarly regulated in vivo.
On the technique in general: Quantitative PCR measures a nucleic acid by following its amplification.

Usually solubility stands for the dissolved amount per volume that the medium holds.

Regarding `Cc1nn(C)cc1CN1CCC(c2ccc(C(=O)Nc3ccccc3N)cc2)CC1` [CXD101, N-(2-aminophenyl)-4-(1-[(1,3-dimethyl-1H-pyrazol-4-yl)methyl]piperidin-4-yl)benzamide], the MC38 tumour response entry in the data set on MC38 tumours is recorded as “marginal response”. For the same compound, in data set [1], the “proliferation of human colon cancer cells” value is recorded as “blocks proliferation”. In addition, in the data set with SW620 cells (SW620), the “share of DEGs down-regulated” value is 30% and the “share of DEGs up-regulated” value came out at 70%. Also, the “number of differentially expressed transcripts” value in the data set on SW620 cells (log 2 FC >1 and FDR <1%) is reported as “about 2500”. The “growth of colon26 tumours” value in the data set on colon26 tumours [2] (mono-therapy vs combined treatment study) is listed as “inhibitory effect”. For the same compound, the body weight entry in the data set on colon26 tumours [2] (mono-therapy, 15 and 50 mg/kg) is on record as “minimal effect”. In addition, the tumour growth entry in the data set on colon26 tumours [2] (mono-therapy, oral, two 5-day periods, 15 and 50 mg/kg, dose-dependent) was “significant inhibition of tumour growth”. Besides, the “H3 acetylation in cells” value with H3 acetylation is “increases the H3 acetylation”. Moreover, in data set [3], the “proliferation of colon26 cells” value is “inhibits proliferation”. In the data set “physchem”, the solubility is ≥ 500 µg/mL. Besides, in the data set on colon26 tumours [4] (colon26 tumours, qPCR), the “expression of Ccl20, Tnfsrf8” value is on record as “no effects”; the “expression of H2-DMb1, H2-Eb1, H2-Dmb1, H2-T3, Ereg, Timp3, Ctla4, H2-D1, Ccl9, 1133” value was “increased expression”; the “expression of Rab3b” value is on record as “decreased”. In addition, in the data set with colon26 tumours [4] (log 2 FC >1 and FDR <1%), the “number of DEGs in tumours in vivo” value came out at 1141.
